# Measured values as given in ChEMBL document CHEMBL3046559, “Sterile oat (Avena sterilis L.) cross-resistance profile to ACCase-inhibiting herbicides in Greece” (2012).
# Assays:
# Type in all cases: functional
# Avena sterilis [1] = assay: Herbicidal activity against Avena sterilis accession P18 assessed as weed survival at 1 times field recommended herbicide dose
# Avena sterilis [2] = assay: Herbicidal activity against Avena sterilis accession P17 assessed as weed survival at 1 times field recommended herbicide dose
# Avena sterilis [3] = assay: Herbicidal activity against Avena sterilis accession P12 assessed as weed survival at 1 times field recommended herbicide dose
# Avena sterilis [4] = assay: Herbicidal activity against Avena sterilis accession P07 assessed as weed survival at 1 times field recommended herbicide dose
# Avena sterilis [5] = assay: Herbicidal activity against Avena sterilis accession P19S assessed as weed survival at 1/32 times field recommended herbicide dose
# Avena sterilis [6] = assay: Herbicidal activity against Avena sterilis accession P13S assessed as weed survival at 1/32 times field recommended herbicide dose
# Avena sterilis [7] = assay: Herbicidal activity against Avena sterilis accession P10S assessed as weed survival at 1/32 times field recommended herbicide dose
# Avena sterilis [8] = assay: Herbicidal activity against Avena sterilis accession P06S assessed as weed survival at 1/32 times field recommended herbicide dose
# Avena sterilis [9] = assay: Herbicidal activity against Avena sterilis accession P20 assessed as weed survival at 32 times field recommended herbicide dose
# Avena sterilis [10] = assay: Herbicidal activity against Avena sterilis accession P18 assessed as weed survival at 32 times field recommended herbicide dose
# Avena sterilis [11] = assay: Herbicidal activity against Avena sterilis accession P17 assessed as weed survival at 32 times field recommended herbicide dose
# Avena sterilis [12] = assay: Herbicidal activity against Avena sterilis accession P05 assessed as weed survival at 1 times field recommended herbicide dose
# Avena sterilis [13] = assay: Herbicidal activity against Avena sterilis accession P01 assessed as weed survival at 1 times field recommended herbicide dose
# Avena sterilis [14] = assay: Herbicidal activity against Avena sterilis accession P13S assessed as induction of weed mortality
# Avena sterilis [15] = assay: Herbicidal activity against Avena sterilis accession P06S assessed as induction of weed mortality
# Avena sterilis [16] = assay: Herbicidal activity against Avena sterilis accession P22 assessed as induction of weed mortality
# Avena sterilis [17] = assay: Herbicidal activity against Avena sterilis accession P18 assessed as induction of weed mortality
# Avena sterilis [18] = assay: Herbicidal activity against Avena sterilis accession P16 assessed as induction of weed mortality
# Avena sterilis [19] = assay: Herbicidal activity against Avena sterilis accession P15 assessed as induction of weed mortality
# Avena sterilis [20] = assay: Herbicidal activity against Avena sterilis accession P12 assessed as induction of weed mortality
# Avena sterilis [21] = assay: Herbicidal activity against Avena sterilis accession P09 assessed as induction of weed mortality
# Avena sterilis [22] = assay: Herbicidal activity against Avena sterilis accession P01 assessed as induction of weed mortality
# Avena sterilis [23] = assay: Herbicidal activity against Avena sterilis accession P16 assessed as weed survival at 8 times field recommended herbicide dose
# Avena sterilis [24] = assay: Herbicidal activity against Avena sterilis accession P15 assessed as weed survival at 8 times field recommended herbicide dose
# Avena sterilis [25] = assay: Herbicidal activity against Avena sterilis accession P12 assessed as weed survival at 8 times field recommended herbicide dose
# Avena sterilis [26] = assay: Herbicidal activity against Avena sterilis accession P15 assessed as weed survival at 32 times field recommended herbicide dose
# Avena sterilis [27] = assay: Herbicidal activity against Avena sterilis accession P14 assessed as weed survival at 32 times field recommended herbicide dose
# Avena sterilis [28] = assay: Herbicidal activity against Avena sterilis accession P12 assessed as weed survival at 32 times field recommended herbicide dose
# Avena sterilis [29] = assay: Herbicidal activity against Avena sterilis accession P11 assessed as weed survival at 32 times field recommended herbicide dose
# Avena sterilis [30] = assay: Herbicidal activity against Avena sterilis accession P05 assessed as weed survival at 8 times field recommended herbicide dose
# Avena sterilis [31] = assay: Herbicidal activity against Avena sterilis accession P03 assessed as weed survival at 32 times field recommended herbicide dose
# Avena sterilis [32] = assay: Herbicidal activity against Avena sterilis accession P02 assessed as weed survival at 32 times field recommended herbicide dose
# Avena sterilis [33] = assay: Herbicidal activity against Avena sterilis accession P01 assessed as weed survival at 32 times field recommended herbicide dose
# Avena sterilis [34] = assay: Herbicidal activity against Avena sterilis accession P13S assessed as weed survival at 1/16 times field recommended herbicide dose
# Avena sterilis [35] = assay: Herbicidal activity against Avena sterilis accession P22 assessed as weed survival at 16 times field recommended herbicide dose
# Avena sterilis [36] = assay: Herbicidal activity against Avena sterilis accession P15 assessed as weed survival at 16 times field recommended herbicide dose
# Avena sterilis [37] = assay: Herbicidal activity against Avena sterilis accession P12 assessed as weed survival at 16 times field recommended herbicide dose
# Avena sterilis [38] = assay: Herbicidal activity against Avena sterilis accession P07 assessed as weed survival at 16 times field recommended herbicide dose
# Avena sterilis [39] = assay: Herbicidal activity against Avena sterilis accession P05 assessed as weed survival at 16 times field recommended herbicide dose
# Avena sterilis [40] = assay: Herbicidal activity against Avena sterilis accession P04 assessed as weed survival at 16 times field recommended herbicide dose
# Avena sterilis [41] = assay: Herbicidal activity against Avena sterilis accession P03 assessed as weed survival at 16 times field recommended herbicide dose
# Avena sterilis [42] = assay: Herbicidal activity against Avena sterilis accession P19S assessed as weed survival at 1/8 times field recommended herbicide dose
# Avena sterilis [43] = assay: Herbicidal activity against Avena sterilis accession P22 assessed as weed survival at 8 times field recommended herbicide dose
# Avena sterilis [44] = assay: Herbicidal activity against Avena sterilis accession P20 assessed as weed survival at 8 times field recommended herbicide dose
# Avena sterilis [45] = assay: Herbicidal activity against Avena sterilis accession P18 assessed as weed survival at 8 times field recommended herbicide dose
# Avena sterilis [46] = assay: Herbicidal activity against Avena sterilis accession P11 assessed as weed survival at 8 times field recommended herbicide dose
# Avena sterilis [47] = assay: Herbicidal activity against Avena sterilis accession P08 assessed as weed survival at 8 times field recommended herbicide dose
# Avena sterilis [48] = assay: Herbicidal activity against Avena sterilis accession P10S assessed as weed survival at 1/4 times field recommended herbicide dose
# Avena sterilis [49] = assay: Herbicidal activity against Avena sterilis accession P20 assessed as weed survival at 4 times field recommended herbicide dose
# Avena sterilis [50] = assay: Herbicidal activity against Avena sterilis accession P17 assessed as weed survival at 4 times field recommended herbicide dose
# Avena sterilis [51] = assay: Herbicidal activity against Avena sterilis accession P18 assessed as weed survival at 4 times field recommended herbicide dose
# Avena sterilis [52] = assay: Herbicidal activity against Avena sterilis accession P12 assessed as weed survival at 4 times field recommended herbicide dose
# Avena sterilis [53] = assay: Herbicidal activity against Avena sterilis accession P11 assessed as weed survival at 4 times field recommended herbicide dose
# Avena sterilis [54] = assay: Herbicidal activity against Avena sterilis accession P07 assessed as weed survival at 4 times field recommended herbicide dose
# Avena sterilis [55] = assay: Herbicidal activity against Avena sterilis accession P03 assessed as weed survival at 4 times field recommended herbicide dose
# Avena sterilis [56] = assay: Herbicidal activity against Avena sterilis accession P01 assessed as weed survival at 4 times field recommended herbicide dose
# Avena sterilis [57] = assay: Herbicidal activity against Avena sterilis accession P10S assessed as weed survival at 1 times field recommended herbicide dose
# Avena sterilis [58] = assay: Herbicidal activity against Avena sterilis accession P22 assessed as weed survival at 1 times field recommended herbicide dose
smiles,measurement,setting,value
COCc1cnc(C2=NC(C)(C(C)C)C(=O)N2)c(C(=O)O)c1 (centres undefined) [IMAZAMOX],Survival,Avena sterilis [1],0%
same,Survival,Avena sterilis [2],3%
same,Survival,Avena sterilis [3],0%
same,Survival,Avena sterilis [4],0%
same,Survival,Avena sterilis [5],100%
same,Survival,Avena sterilis [6],100%
same,Survival,Avena sterilis [7],100%
same,Survival,Avena sterilis [8],97%
same,Survival,Avena sterilis [9],0%
same,Survival,Avena sterilis [10],0%
same,Survival,Avena sterilis [11],0%
same,Survival,Avena sterilis [12],0%
same,Survival,Avena sterilis [13],0%
same,GR50,Avena sterilis [14],8 gAi/ha
same,GR50,Avena sterilis [15],9 gAi/ha
same,GR50,Avena sterilis [16],<50 gAi/ha
same,GR50,Avena sterilis [17],<50 gAi/ha
same,GR50,Avena sterilis [18],<50 gAi/ha
same,GR50,Avena sterilis [19],<50 gAi/ha
same,GR50,Avena sterilis [20],<50 gAi/ha
same,GR50,Avena sterilis [21],<50 gAi/ha
same,GR50,Avena sterilis [22],<50 gAi/ha
same,Survival,Avena sterilis [23],0%
same,Survival,Avena sterilis [24],0%
same,Survival,Avena sterilis [25],0%
same,Survival,Avena sterilis [26],0%
same,Survival,Avena sterilis [27],0%
same,Survival,Avena sterilis [28],0%
same,Survival,Avena sterilis [29],0%
same,Survival,Avena sterilis [30],0%
same,Survival,Avena sterilis [31],0%
same,Survival,Avena sterilis [32],0%
same,Survival,Avena sterilis [33],0%
same,Survival,Avena sterilis [34],80%
same,Survival,Avena sterilis [35],0%
same,Survival,Avena sterilis [36],0%
same,Survival,Avena sterilis [37],0%
same,Survival,Avena sterilis [38],0%
same,Survival,Avena sterilis [39],0%
same,Survival,Avena sterilis [40],0%
same,Survival,Avena sterilis [41],0%
same,Survival,Avena sterilis [42],80%
same,Survival,Avena sterilis [43],0%
same,Survival,Avena sterilis [44],0%
same,Survival,Avena sterilis [45],0%
same,Survival,Avena sterilis [46],0%
same,Survival,Avena sterilis [47],0%
same,Survival,Avena sterilis [48],20%
same,Survival,Avena sterilis [49],0%
same,Survival,Avena sterilis [50],0%
same,Survival,Avena sterilis [51],0%
same,Survival,Avena sterilis [52],0%
same,Survival,Avena sterilis [53],0%
same,Survival,Avena sterilis [54],0%
same,Survival,Avena sterilis [55],0%
same,Survival,Avena sterilis [56],0%
same,Survival,Avena sterilis [57],0%
same,Survival,Avena sterilis [58],0%
CCc1cc(C)cc(CC)c1-c1c(OC(=O)C(C)(C)C)n2n(c1=O)CCOCC2 [PINOXADEN],Survival,Avena sterilis [1],0%
same,Survival,Avena sterilis [2],0%
same,Survival,Avena sterilis [3],0%
same,Survival,Avena sterilis [4],0%
same,Survival,Avena sterilis [5],100%
same,Survival,Avena sterilis [6],100%
same,Survival,Avena sterilis [7],100%
same,Survival,Avena sterilis [8],97%
same,Survival,Avena sterilis [9],0%
same,Survival,Avena sterilis [10],0%
same,Survival,Avena sterilis [11],0%
same,Survival,Avena sterilis [12],20%
same,Survival,Avena sterilis [13],20%
same,GR50,Avena sterilis [14],4.1 gAi/ha
same,GR50,Avena sterilis [15],3.5 gAi/ha
same,GR50,Avena sterilis [16],<40 gAi/ha
same,GR50,Avena sterilis [17],<40 gAi/ha
same,GR50,Avena sterilis [18],<40 gAi/ha
same,GR50,Avena sterilis [19],<40 gAi/ha
same,GR50,Avena sterilis [20],<40 gAi/ha
same,GR50,Avena sterilis [21],<40 gAi/ha
same,GR50,Avena sterilis [22],<40 gAi/ha
same,Survival,Avena sterilis [23],0%
same,Survival,Avena sterilis [24],0%
same,Survival,Avena sterilis [25],0%
same,Survival,Avena sterilis [26],0%
same,Survival,Avena sterilis [27],0%
same,Survival,Avena sterilis [28],0%
same,Survival,Avena sterilis [29],0%
same,Survival,Avena sterilis [30],0%
same,Survival,Avena sterilis [31],0%
same,Survival,Avena sterilis [32],0%
same,Survival,Avena sterilis [33],0%
same,Survival,Avena sterilis [34],97%
same,Survival,Avena sterilis [35],0%
same,Survival,Avena sterilis [36],0%
same,Survival,Avena sterilis [37],0%
same,Survival,Avena sterilis [38],0%
same,Survival,Avena sterilis [39],0%
same,Survival,Avena sterilis [40],0%
same,Survival,Avena sterilis [41],0%
same,Survival,Avena sterilis [42],50%
same,Survival,Avena sterilis [43],0%
same,Survival,Avena sterilis [44],0%
same,Survival,Avena sterilis [45],0%
same,Survival,Avena sterilis [46],0%
same,Survival,Avena sterilis [47],0%
same,Survival,Avena sterilis [48],0%
same,Survival,Avena sterilis [49],0%
same,Survival,Avena sterilis [50],0%
same,Survival,Avena sterilis [51],0%
same,Survival,Avena sterilis [52],0%
same,Survival,Avena sterilis [53],0%
same,Survival,Avena sterilis [54],0%
same,Survival,Avena sterilis [55],3%
same,Survival,Avena sterilis [56],17%
same,Survival,Avena sterilis [57],0%
same,Survival,Avena sterilis [58],20%
CCO/N=C(\CC)C1=C(O)CC(c2c(C)cc(C)cc2C)CC1=O (centres undefined) [TRALKOXYDIM],Survival,Avena sterilis [1],20%
same,Survival,Avena sterilis [2],50%
same,Survival,Avena sterilis [3],13%
same,Survival,Avena sterilis [4],23%
same,Survival,Avena sterilis [5],100%
same,Survival,Avena sterilis [6],93%
same,Survival,Avena sterilis [7],97%
same,Survival,Avena sterilis [8],80%
same,Survival,Avena sterilis [9],20%
same,Survival,Avena sterilis [10],0%
same,Survival,Avena sterilis [11],0%
same,Survival,Avena sterilis [12],40%
same,Survival,Avena sterilis [13],60%
same,GR50,Avena sterilis [14],34 gAi/ha
same,GR50,Avena sterilis [15],32 gAi/ha
same,GR50,Avena sterilis [16],434 gAi/ha
same,GR50,Avena sterilis [17],<400 gAi/ha
same,GR50,Avena sterilis [18],907 gAi/ha
same,GR50,Avena sterilis [19],735 gAi/ha
same,GR50,Avena sterilis [20],<400 gAi/ha
same,GR50,Avena sterilis [21],532 gAi/ha
same,GR50,Avena sterilis [22],766 gAi/ha
same,Survival,Avena sterilis [23],17%
same,Survival,Avena sterilis [24],20%
same,Survival,Avena sterilis [25],0%
same,Survival,Avena sterilis [26],0%
same,Survival,Avena sterilis [27],0%
same,Survival,Avena sterilis [28],0%
same,Survival,Avena sterilis [29],0%
same,Survival,Avena sterilis [30],10%
same,Survival,Avena sterilis [31],17%
same,Survival,Avena sterilis [32],0%
same,Survival,Avena sterilis [33],0%
same,Survival,Avena sterilis [34],67%
same,Survival,Avena sterilis [35],20%
same,Survival,Avena sterilis [36],20%
same,Survival,Avena sterilis [37],0%
same,Survival,Avena sterilis [38],0%
same,Survival,Avena sterilis [39],0%
same,Survival,Avena sterilis [40],60%
same,Survival,Avena sterilis [41],20%
same,Survival,Avena sterilis [42],93%
same,Survival,Avena sterilis [43],20%
same,Survival,Avena sterilis [44],40%
same,Survival,Avena sterilis [45],0%
same,Survival,Avena sterilis [46],0%
same,Survival,Avena sterilis [47],17%
same,Survival,Avena sterilis [48],20%
same,Survival,Avena sterilis [49],80%
same,Survival,Avena sterilis [50],20%
same,Survival,Avena sterilis [51],20%
same,Survival,Avena sterilis [52],0%
same,Survival,Avena sterilis [53],0%
same,Survival,Avena sterilis [54],20%
same,Survival,Avena sterilis [55],60%
same,Survival,Avena sterilis [56],43%
same,Survival,Avena sterilis [57],0%
same,Survival,Avena sterilis [58],57%
